Experimental data reported in paper PMC6199309, “A therapeutic approach to pantothenate kinase associated neurodegeneration” (Nature Communications, 2018).

Experiments:
[1] = target: T1, EGFR(L747-S752del, P753S) (Homo sapiens, UniProt P00533, DEL747-752/P753S); assay: KINOMEscan; format: binding; conditions: read-out: %Ctrl @ 10000nM
T1 construct: purchased DiscoverX KINOMEscan

[2] = target: T2, DCAMKL3 (Homo sapiens, UniProt Q9C098); assay: KINOMEscan; format: binding; conditions: read-out: %Ctrl @ 10000nM
T2 construct: purchased DiscoverX KINOMEscan

[3] = target: T3, p38-beta (Homo sapiens, UniProt Q15759); assay: KINOMEscan; format: binding; conditions: read-out: %Ctrl @ 10000nM
T3 construct: purchased DiscoverX KINOMEscan

[4] = target: T4, MEK4 (Homo sapiens, UniProt P45985); assay: KINOMEscan; format: binding; conditions: read-out: %Ctrl @ 10000nM
T4 construct: purchased DiscoverX KINOMEscan

[5] = target: T5, MAPKAPK5 (Homo sapiens, UniProt Q8IW41); assay: KINOMEscan; format: binding; conditions: read-out: %Ctrl @ 10000nM
T5 construct: purchased DiscoverX KINOMEscan

[6] = target: T6, PRKCH (Homo sapiens, UniProt P24723); assay: KINOMEscan; format: binding; conditions: read-out: %Ctrl @ 10000nM
T6 construct: purchased DiscoverX KINOMEscan

[7] = target: T7, ABL1(H396P)-phosphorylated (Homo sapiens, UniProt P00519, H396P); assay: KINOMEscan; format: binding; conditions: read-out: %Ctrl @ 10000nM
T7 construct: purchased DiscoverX KINOMEscan

[8] = target: T8, DRAK2 (Homo sapiens, UniProt O94768); assay: KINOMEscan; format: binding; conditions: read-out: %Ctrl @ 10000nM
T8 construct: purchased DiscoverX KINOMEscan

[9] = target: T9, IRAK4 (Homo sapiens, UniProt Q9NWZ3); assay: KINOMEscan; format: binding; conditions: read-out: %Ctrl @ 10000nM
T9 construct: purchased DiscoverX KINOMEscan

[10] = test system: tissue CoA; assay: Mouse efficacy testing: tissue CoA levels; format: in vivo
Protocol: C57Bl6/J mice (8-week-old) were purchased from Jackson Laboratory and were fed either a regular diet (autoclavable rodent breeder diet, Labdiet) or an isocaloric, pantothenic acid-supplemented diet (1000 ppm) for 2 weeks prior to the experiment. The mice were maintained at room temperature 72° ± 2 °F, humidity 50 ± 10% and a 14 h light /10 h dark cycle with the dark cycle starting at 18:00 h. Water was supplied ad libitum. The mice were randomized into the treatment arms to achieve a normal weight distribution. […] The mice were euthanized and tissues harvested 4 h after the last dose. The tissue samples were used for total CoA, pantothenate and pantazine determinations. Blood was collected from euthanized animals, plasma or serum was prepared and stored frozen until analysis. Organs, including liver, forebrain, and hindbrain were quickly excised from euthanized animals and immediately flash frozen in liquid N2 or immersed in RNAlater® (Qiagen) overnight prior to freezing. Forebrain and hindbrain regions were identified. Total CoA was determined using 20–50 mg of tissue (liver, forebrain or hindbrain) homogenized in 2 ml of 1 mM KOH. The pH was adjusted to 12.0 with 0.25 M KOH, and incubated at 55 °C for 2 h[23]. The pH of the sample was adjusted to 8.0, and the samples were derivatized with monobromobimane (mBBr) and analyzed by HPLC equipped with a fluorescence detector.

[11] = target: T10, LIMK1 (Homo sapiens, UniProt P53667); assay: KINOMEscan; format: binding; conditions: read-out: %Ctrl @ 10000nM
T10 construct: purchased DiscoverX KINOMEscan

[12] = target: T11, RIOK3 (Homo sapiens, UniProt O14730); assay: KINOMEscan; format: binding; conditions: read-out: %Ctrl @ 10000nM
T11 construct: purchased DiscoverX KINOMEscan

[13] = target: T12, MLK1 (Homo sapiens, UniProt P80192); assay: KINOMEscan; format: binding; conditions: read-out: %Ctrl @ 10000nM
T12 construct: purchased DiscoverX KINOMEscan

[14] = target: T13, NDR1 (Homo sapiens, UniProt Q15208); assay: KINOMEscan; format: binding; conditions: read-out: %Ctrl @ 10000nM
T13 construct: purchased DiscoverX KINOMEscan

[15] = target: T14, STK36 (Homo sapiens, UniProt Q9NRP7); assay: KINOMEscan; format: binding; conditions: read-out: %Ctrl @ 10000nM
T14 construct: purchased DiscoverX KINOMEscan

[16] = target: T15, EGFR(E746-A750del) (Homo sapiens, UniProt P00533, DEL746-750); assay: KINOMEscan; format: binding; conditions: read-out: %Ctrl @ 10000nM
T15 construct: purchased DiscoverX KINOMEscan

[17] = target: T16, FRK (Homo sapiens, UniProt P42685); assay: KINOMEscan; format: binding; conditions: read-out: %Ctrl @ 10000nM
T16 construct: purchased DiscoverX KINOMEscan

[18] = target: T17, CHEK2 (Homo sapiens, UniProt O96017); assay: KINOMEscan; format: binding; conditions: read-out: %Ctrl @ 10000nM
T17 construct: purchased DiscoverX KINOMEscan

[19] = target: T18, RSK4(Kin.Dom.2-C-terminal) (Homo sapiens, UniProt Q9UK32); assay: KINOMEscan; format: binding; conditions: read-out: %Ctrl @ 10000nM
T18 construct: RSK4(Kin.Dom.2-C-terminal); purchased DiscoverX KINOMEscan

[20] = target: T19, BRK (Homo sapiens, UniProt Q13882); assay: KINOMEscan; format: binding; conditions: read-out: %Ctrl @ 10000nM
T19 construct: purchased DiscoverX KINOMEscan

[21] = target: T20, SNARK (Homo sapiens, UniProt Q9H093); assay: KINOMEscan; format: binding; conditions: read-out: %Ctrl @ 10000nM
T20 construct: purchased DiscoverX KINOMEscan

[22] = target: T21, EGFR(G719S) (Homo sapiens, UniProt P00533, G719S); assay: KINOMEscan; format: binding; conditions: read-out: %Ctrl @ 10000nM
T21 construct: purchased DiscoverX KINOMEscan

[23] = target: T22, TBK1 (Homo sapiens, UniProt Q9UHD2); assay: KINOMEscan; format: binding; conditions: read-out: %Ctrl @ 10000nM
T22 construct: purchased DiscoverX KINOMEscan

[24] = target: T23, TRPM6 (Homo sapiens, UniProt Q9BX84); assay: KINOMEscan; format: binding; conditions: read-out: %Ctrl @ 10000nM
T23 construct: DNA label for qPCR (T7 phage fusion or DNA tag); purchased DiscoverX scanMAX; host or cells: E. coli BL21-derived (T7 phage) or HEK-293

[25] = target: T24, CSNK2A2 (Homo sapiens, UniProt P19784); assay: KINOMEscan; format: binding; conditions: read-out: %Ctrl @ 10000nM
T24 construct: purchased DiscoverX KINOMEscan

[26] = target: T25, ALK (Homo sapiens, UniProt Q9UM73); assay: KINOMEscan; format: binding; conditions: read-out: %Ctrl @ 10000nM
T25 construct: purchased DiscoverX KINOMEscan

[27] = target: T26, RSK1(Kin.Dom.2-C-terminal) (Homo sapiens, UniProt Q15418); assay: KINOMEscan; format: binding; conditions: read-out: %Ctrl @ 10000nM
T26 construct: RSK1(Kin.Dom.2-C-terminal); purchased DiscoverX KINOMEscan

[28] = target: T27, FLT3(D835H) (Homo sapiens, UniProt P36888, D835H); assay: KINOMEscan; format: binding; conditions: read-out: %Ctrl @ 10000nM
T27 construct: purchased DiscoverX KINOMEscan

[29] = target: T28, IKK-alpha (Homo sapiens, UniProt O15111); assay: KINOMEscan; format: binding; conditions: read-out: %Ctrl @ 10000nM
T28 construct: purchased DiscoverX KINOMEscan

[30] = target: T29, PCTK2 (Homo sapiens, UniProt Q00537); assay: KINOMEscan; format: binding; conditions: read-out: %Ctrl @ 10000nM
T29 construct: purchased DiscoverX KINOMEscan

[31] = test system: 72 cellular proteins known to cause off-target effects; assay: SAFETYscan off-target panel; conditions: 1 and 10 μM
[32] = target: T30, PIK3CD (Homo sapiens, UniProt O00329); assay: KINOMEscan; format: binding; conditions: read-out: %Ctrl @ 10000nM
T30 construct: purchased DiscoverX KINOMEscan

T1 sequence (P00533 with tags, fused parts or gaps DEL747-752/P753S limits assumed): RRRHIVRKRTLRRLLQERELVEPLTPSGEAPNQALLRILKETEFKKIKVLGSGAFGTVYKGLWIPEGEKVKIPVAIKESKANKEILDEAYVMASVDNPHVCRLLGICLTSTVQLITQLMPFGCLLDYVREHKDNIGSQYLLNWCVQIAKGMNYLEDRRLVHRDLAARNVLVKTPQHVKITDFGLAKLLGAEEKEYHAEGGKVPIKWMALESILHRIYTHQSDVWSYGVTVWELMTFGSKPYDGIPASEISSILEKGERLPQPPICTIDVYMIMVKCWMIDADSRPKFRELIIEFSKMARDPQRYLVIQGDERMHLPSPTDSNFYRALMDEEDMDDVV
T22 sequence (Q9UHD2 whole entry): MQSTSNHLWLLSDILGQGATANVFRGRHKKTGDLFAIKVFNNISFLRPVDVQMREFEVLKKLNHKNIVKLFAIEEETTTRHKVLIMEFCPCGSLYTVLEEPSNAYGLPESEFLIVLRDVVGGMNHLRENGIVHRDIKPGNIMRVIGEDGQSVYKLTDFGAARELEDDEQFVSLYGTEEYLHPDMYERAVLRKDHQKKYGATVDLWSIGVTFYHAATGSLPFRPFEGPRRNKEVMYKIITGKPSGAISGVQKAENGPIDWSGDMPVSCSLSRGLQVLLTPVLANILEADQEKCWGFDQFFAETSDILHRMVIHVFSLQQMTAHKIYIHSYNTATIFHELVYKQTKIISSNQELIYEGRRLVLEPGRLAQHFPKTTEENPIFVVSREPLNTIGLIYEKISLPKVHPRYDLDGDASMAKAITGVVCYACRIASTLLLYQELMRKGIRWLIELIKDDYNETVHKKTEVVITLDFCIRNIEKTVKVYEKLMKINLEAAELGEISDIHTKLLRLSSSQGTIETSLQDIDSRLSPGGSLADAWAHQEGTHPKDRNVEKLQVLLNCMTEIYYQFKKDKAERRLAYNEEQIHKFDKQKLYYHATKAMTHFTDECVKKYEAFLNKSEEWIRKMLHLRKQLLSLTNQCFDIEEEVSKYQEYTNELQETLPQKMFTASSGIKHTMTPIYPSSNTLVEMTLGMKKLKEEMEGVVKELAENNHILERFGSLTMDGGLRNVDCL
T26 sequence (Q15418 392-735 limits assumed): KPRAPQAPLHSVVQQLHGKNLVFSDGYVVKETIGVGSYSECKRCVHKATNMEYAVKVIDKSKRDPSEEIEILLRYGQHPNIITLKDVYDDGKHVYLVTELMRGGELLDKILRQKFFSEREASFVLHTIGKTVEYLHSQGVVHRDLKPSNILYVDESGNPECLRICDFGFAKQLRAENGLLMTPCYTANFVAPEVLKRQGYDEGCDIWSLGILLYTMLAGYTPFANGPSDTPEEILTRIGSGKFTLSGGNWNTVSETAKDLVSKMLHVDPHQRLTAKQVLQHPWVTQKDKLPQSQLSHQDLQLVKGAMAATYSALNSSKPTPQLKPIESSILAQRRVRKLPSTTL
T13 sequence (Q15208 whole entry): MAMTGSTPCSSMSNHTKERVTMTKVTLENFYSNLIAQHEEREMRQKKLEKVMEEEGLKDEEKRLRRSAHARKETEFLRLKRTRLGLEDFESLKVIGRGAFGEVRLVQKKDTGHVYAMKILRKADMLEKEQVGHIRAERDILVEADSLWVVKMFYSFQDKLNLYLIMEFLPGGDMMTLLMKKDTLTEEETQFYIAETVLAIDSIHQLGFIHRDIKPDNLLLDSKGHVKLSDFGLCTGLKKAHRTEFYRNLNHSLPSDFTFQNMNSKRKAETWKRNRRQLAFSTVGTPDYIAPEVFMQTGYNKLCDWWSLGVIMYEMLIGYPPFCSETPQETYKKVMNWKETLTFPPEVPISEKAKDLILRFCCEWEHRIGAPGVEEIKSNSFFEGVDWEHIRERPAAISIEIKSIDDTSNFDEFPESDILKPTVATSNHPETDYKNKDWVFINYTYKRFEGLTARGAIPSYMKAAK
T10 sequence (P53667 whole entry): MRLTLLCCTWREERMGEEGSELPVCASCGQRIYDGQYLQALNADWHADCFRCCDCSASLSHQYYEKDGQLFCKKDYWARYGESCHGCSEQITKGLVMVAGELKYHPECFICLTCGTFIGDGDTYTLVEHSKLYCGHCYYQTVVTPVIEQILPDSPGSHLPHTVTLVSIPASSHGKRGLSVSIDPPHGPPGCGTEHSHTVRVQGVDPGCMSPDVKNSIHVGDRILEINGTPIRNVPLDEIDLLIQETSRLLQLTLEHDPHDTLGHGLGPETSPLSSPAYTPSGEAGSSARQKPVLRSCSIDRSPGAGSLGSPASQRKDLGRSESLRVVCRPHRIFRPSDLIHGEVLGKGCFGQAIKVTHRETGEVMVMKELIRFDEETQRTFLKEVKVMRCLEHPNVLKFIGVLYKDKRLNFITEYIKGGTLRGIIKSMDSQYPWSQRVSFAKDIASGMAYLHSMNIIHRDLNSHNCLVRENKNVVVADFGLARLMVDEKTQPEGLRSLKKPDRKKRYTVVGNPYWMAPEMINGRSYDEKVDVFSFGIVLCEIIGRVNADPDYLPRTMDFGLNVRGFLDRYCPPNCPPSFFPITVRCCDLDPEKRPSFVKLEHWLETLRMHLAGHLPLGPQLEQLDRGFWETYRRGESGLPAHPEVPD
T14 sequence (Q9NRP7 whole entry): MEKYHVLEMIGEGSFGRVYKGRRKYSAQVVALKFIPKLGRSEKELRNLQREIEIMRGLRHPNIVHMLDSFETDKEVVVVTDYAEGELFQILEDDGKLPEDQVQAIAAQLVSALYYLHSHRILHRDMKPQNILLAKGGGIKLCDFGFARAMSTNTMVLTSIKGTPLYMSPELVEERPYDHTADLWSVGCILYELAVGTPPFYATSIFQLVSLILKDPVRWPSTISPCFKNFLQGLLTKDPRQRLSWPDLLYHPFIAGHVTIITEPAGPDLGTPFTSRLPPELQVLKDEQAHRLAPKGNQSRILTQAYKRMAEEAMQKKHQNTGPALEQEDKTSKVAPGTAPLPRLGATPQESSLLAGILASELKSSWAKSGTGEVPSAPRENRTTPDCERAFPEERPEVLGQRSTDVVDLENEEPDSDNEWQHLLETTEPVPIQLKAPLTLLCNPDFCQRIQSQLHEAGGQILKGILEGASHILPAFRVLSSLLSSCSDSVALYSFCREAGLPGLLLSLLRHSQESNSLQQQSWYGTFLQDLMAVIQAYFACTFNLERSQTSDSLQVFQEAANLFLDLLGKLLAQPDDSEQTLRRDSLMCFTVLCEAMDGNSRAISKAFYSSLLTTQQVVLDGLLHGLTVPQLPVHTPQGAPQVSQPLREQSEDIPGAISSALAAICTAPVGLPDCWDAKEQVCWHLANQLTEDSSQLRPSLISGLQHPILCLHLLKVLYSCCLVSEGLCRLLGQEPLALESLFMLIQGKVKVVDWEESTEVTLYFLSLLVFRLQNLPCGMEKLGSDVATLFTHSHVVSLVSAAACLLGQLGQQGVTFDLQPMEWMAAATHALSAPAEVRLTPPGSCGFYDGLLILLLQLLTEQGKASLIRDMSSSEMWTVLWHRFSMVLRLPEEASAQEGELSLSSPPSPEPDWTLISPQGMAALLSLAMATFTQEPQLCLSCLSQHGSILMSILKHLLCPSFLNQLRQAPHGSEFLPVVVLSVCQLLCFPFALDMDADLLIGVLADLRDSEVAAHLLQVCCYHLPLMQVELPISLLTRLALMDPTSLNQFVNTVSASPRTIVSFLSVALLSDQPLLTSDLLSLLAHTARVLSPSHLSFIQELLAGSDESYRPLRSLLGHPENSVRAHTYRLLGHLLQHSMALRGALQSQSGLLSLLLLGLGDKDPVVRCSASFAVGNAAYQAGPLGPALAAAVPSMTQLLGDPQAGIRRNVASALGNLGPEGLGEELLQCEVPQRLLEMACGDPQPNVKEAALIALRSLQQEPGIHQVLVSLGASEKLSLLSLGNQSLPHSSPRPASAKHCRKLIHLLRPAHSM
T5 sequence (Q8IW41 whole entry): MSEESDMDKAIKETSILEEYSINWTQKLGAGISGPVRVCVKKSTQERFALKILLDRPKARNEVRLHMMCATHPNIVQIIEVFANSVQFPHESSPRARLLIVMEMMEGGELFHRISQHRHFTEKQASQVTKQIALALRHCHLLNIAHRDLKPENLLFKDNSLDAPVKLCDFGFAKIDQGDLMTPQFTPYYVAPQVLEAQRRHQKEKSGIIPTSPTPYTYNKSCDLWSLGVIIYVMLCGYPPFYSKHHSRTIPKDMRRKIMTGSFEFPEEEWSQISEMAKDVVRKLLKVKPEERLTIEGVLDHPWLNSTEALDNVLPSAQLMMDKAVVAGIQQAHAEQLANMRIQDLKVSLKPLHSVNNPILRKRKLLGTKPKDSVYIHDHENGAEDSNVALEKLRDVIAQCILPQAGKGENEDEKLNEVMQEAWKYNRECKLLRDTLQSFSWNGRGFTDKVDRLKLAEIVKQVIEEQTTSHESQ
T15 sequence (P00533 with tags, fused parts or gaps DEL746-750 limits assumed): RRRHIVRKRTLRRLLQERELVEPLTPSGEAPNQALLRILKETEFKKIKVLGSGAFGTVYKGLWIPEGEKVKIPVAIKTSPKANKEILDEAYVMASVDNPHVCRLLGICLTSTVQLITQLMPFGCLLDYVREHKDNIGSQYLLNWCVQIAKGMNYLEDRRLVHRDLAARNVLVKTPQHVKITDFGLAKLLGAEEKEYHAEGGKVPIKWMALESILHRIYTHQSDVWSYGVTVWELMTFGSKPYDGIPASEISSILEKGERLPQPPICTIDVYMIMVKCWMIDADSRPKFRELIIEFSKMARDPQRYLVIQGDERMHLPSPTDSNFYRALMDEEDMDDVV
T3 sequence (Q15759 whole entry): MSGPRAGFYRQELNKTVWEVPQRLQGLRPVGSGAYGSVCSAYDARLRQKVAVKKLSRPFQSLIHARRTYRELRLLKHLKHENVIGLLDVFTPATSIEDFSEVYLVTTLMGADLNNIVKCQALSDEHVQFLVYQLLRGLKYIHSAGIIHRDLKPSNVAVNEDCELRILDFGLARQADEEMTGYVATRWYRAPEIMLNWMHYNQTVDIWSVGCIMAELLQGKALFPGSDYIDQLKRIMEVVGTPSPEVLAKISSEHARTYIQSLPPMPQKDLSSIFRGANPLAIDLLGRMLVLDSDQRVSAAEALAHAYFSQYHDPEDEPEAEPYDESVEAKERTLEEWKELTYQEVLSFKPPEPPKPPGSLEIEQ

Work on `CC(C)c1ccc(CC(=O)N2CCN(c3ccc(C#N)nn3)CC2)cc1` [PZ-2891, 6-(4-(2-(4-isopropylphenyl)acetyl)piperazin-1-yl)pyridazine-3-carbonitrile] yielded a remaining binding at 10 µM [1] of 100%, a remaining binding at 10 µM [2] of 84% and a remaining binding at 10 µM [3] of 96%. The remaining binding at 10 µM [4] was 100%, the remaining binding at 10 µM [5] was 74% and the remaining binding at 10 µM [6] was 92%. The remaining binding at 10 µM [7] was 76%, the remaining binding at 10 µM [8] was 95% and the remaining binding at 10 µM [9] was 93%. The “increase in total liver CoA” value ([10]; 30 mg/kg PZ-2891 alone, oral gavage, 5 doses at 12 h intervals) was 50%, the “increase in liver CoA levels” value ([10]; 30 mg/kg PZ-2891 plus 200 mg/kg pantothenate, oral gavage, 5 doses at 12 h intervals) was 100% and the “muscle CoA levels” value ([10]; 112 ppm PZ-2891 in chow, 1 week) was “not elevated”. The “CoA levels in tissues, 1 week chow” value ([10]; 112 ppm PZ-2891 in chow, 1000 ppm pantothenate, 1 week) was “elevated in liver, brain, and to a lesser extent, heart”, the “total CoA in liver, forebrain and hindbrain” value ([10]; male and female mice, 5 oral doses every 12 h plus 100 mg/kg pantothenate) was “dose-dependent increase in total CoA” and the “weights or behavior of treated animals” value ([10]; one-month treatment in diet) was “no difference in the weights or behavior”. The “liver and brain CoA, 4 weeks diet” value ([10]; series of PZ-2891 doses in diet, 1000 ppm pantothenate, 4 weeks) was “significantly elevated”, the remaining binding at 10 µM [11] was 87% and the remaining binding at 10 µM [12] was 100%. The remaining binding at 10 µM [13] was 81%, the remaining binding at 10 µM [14] was 75% and the remaining binding at 10 µM [15] was 84%. For the same compound, the remaining binding at 10 µM [16] was 100%, the remaining binding at 10 µM [17] was 86% and the remaining binding at 10 µM [18] was 79%. It also gave a remaining binding at 10 µM [19] of 71%, a remaining binding at 10 µM [20] of 80% and a remaining binding at 10 µM [21] of 69%. For the same compound, the remaining binding at 10 µM [22] was 91%, the remaining binding at 10 µM [23] was 60% and the remaining binding at 10 µM [24] was 98%. For the same compound, the remaining binding at 10 µM [25] was 88%, the remaining binding at 10 µM [26] was 100% and the remaining binding at 10 µM [27] was 64%. The remaining binding at 10 µM [28] was 92%, the remaining binding at 10 µM [29] was 100% and the remaining binding at 10 µM [30] was 95%. For the same compound, the off-target pharmacological interactions [31] was “absence of off-target pharmacological interactions” and the remaining binding at 10 µM [32] was 89%.
